{"source": "patent US20230346823A1", "about": "“UTILIZATION OF VITAMIN B12 IN INHIBITING RENAL DISORDER” (Niigata University, priority 2020, published 2023)", "molecules": {"B1": {"name": "transcobalamin 2: Recombinant rat transcobalamin 2 protein, a transport protein for vitamin B12 (about 45 kDa) (protein, UniProt Q9R0D6 19-427, looked up)", "Transcobalamin-2": "EFCVIPKMDGQLVEKLGQRLLPWMDRLSSEQLNPSIYVGLRLSSMQAGTKENLYLHNLKLHYQQCLLRSTSSDDNSGCQTKISGGSLALYLLALRANCELLGSRKGDRMVSQLKWFLEDEKKAIGHHHEGHPHTSYYQYGLSILALCVHRKRVHDSVVGKLLYAVEHDYFTYQGHLSVDTEAMAGLAFTCLERFNFNSDLRPRITTAIETVREKILKAQAPEGYFGNIYSTPLALQMLMTSPGVGLGPACLKARKSLLLSLQDGAFQNPMMISQLLPVLNHKTYLNLISPDCQAPRVMLVPATEDPVHLSEVSVTLKVSSVLPPYERTVSVFAGASLEDVLNRARDLGEFTYGTQASLSGPYLTSVLGKEAGDREYWQLLRVPDTPLLQGIADYKPKNGETIELRLVKM"}}, "key": {"transcobalamin 2 (TCN2) [1]": {"target": "T1, transcobalamin 2 (TCN2) (Rattus norvegicus, UniProt Q9R0D6)", "T1 construct": "purchased LifeSpan BioSciences, Inc", "T1 sequence (Q9R0D6 19-427)": "B1 Transcobalamin-2", "experiment": "Binding of TCN2 to iomeprol-immobilized magnetic beads, Western blotting with anti-TCN2 antibody", "conditions": "feed concentrations 0, 3 and 10 mM, 25 ng/µL TCN2, 4° C., 4 hours, FIG. 5", "experimental": "The bulk of iodinated contrast medium was dissolved, just before use, in a solvent in which glycidylmethacrylate-coated magnetic beads (FG beads®, particle size: 0.2 µm, produced by Tamagawa Seiki Co., Ltd.) were dispersed, to initiate chemical bonding between […] present on the surface of the magnetic beads and hydroxyl groups in the contrast medium, whereby contrast medium-immobilized magnetic beads were prepared.\nThe iodinated contrast medium used was the bulk of iomeprol. At feed concentrations of 0 mM, 3 mM and 10 mM, the iodinated contrast medium was immobilized by chemical bonding. The preparation of the iomeprol-immobilized beads was conducted by Tamagawa Seiki Co., Ltd. […]\nThe TCN2-containing samples were subjected to SDS-polyacrylamide electrophoresis under reducing conditions using 4-15% gradient gels (produced by Bio-Rad Laboratories), and the developed samples were transferred onto polyvinylidene fluoride (PVDF) membranes. […] Then, bands were detected using chemiluminescent substrate for western blotting (SuperSignal™ West Femto Maximum Sensitivity Substrate; Thermo Scientific™)."}, "transcobalamin 2 (TCN2) [2]": {"target": "T1, transcobalamin 2 (TCN2)", "experiment": "Competition against binding of TCN2 to contrast medium-immobilized beads, Western blotting", "conditions": "25 ng/µL TCN2 + test substance; contrast medium beads (iomeprol, ioversol, iodixanol, iopromide, iohexol) at 10 mM feed; FIG. 6 to FIG. 10", "description": "Iodinated contrast media used were the bulk of iomeprol, the bulk of ioversol, the bulk of iodixanol, the bulk of iopromide, and the bulk of iohexol. Evaluations were made using these solid-phased beads.\nFor test chemicals for competing with the binding, vitamin B12 (cyanocobalamin, methylcobalamin, or hydroxocobalamin), cilastatin, and iomeprol (iodinated contrast medium) were used. Cilastatin and iomeprol are positive controls of inhibition.\nThe solution/beads combinations adopted were as mentioned below. • Solution a) + contrast medium-immobilized beads prepared at 0 mM contrast medium feed concentration (control) • Solution a) + contrast medium-immobilized beads prepared at 10 mM contrast medium feed concentration (no competition) • Solution b) + contrast medium-immobilized beads prepared at 10 mM contrast medium feed concentration (competition with vitamin B12, iomeprol, or cilastatin)"}, "[3]": {"system": "renal proximal tubular epithelial cells", "experiment": "Internalization of iodinated contrast medium into kidney cortex, iodine/nitrogen ratio by EPMA", "assay_type": "in vivo, C57BL/6J mice", "conditions": "100 µL iomeprol + 100 µL of 1 mg/mL cyanocobalamin, tail vein; kidneys 3 hours later; vs iomeprol + normal saline control; t-test; FIG. 1", "experimental": "The prepared sections were analyzed by EPMA (EPMA1610; Shimadzu Ltd, Kyoto, Japan) by following the procedure described below to examine whether there is a difference in the internalization of a contrast medium between the contrast medium + vitamin B12-treated group and the contrast medium + normal saline-treated group.\nEPMA is an electron microprobe (EMP) instrument that analyzes the constituent elements of a substance of interest by irradiating electron beams onto the substance and measuring the wavelengths and intensities of characteristic X-rays unique to the different elements, which are generated by the electron beams. The iodine content in sections can be determined by EMP analysis (Norby, et al., Scanning Microsc, 1990, vol.4, p.651-666). […] The behaviors of iodinated contrast media per se can be verified by analyzing iodine content distribution.\nThe “thin-film quantification” technique can be applied for analysis of biological samples such as kidney tissue sections. […]\nTherefore, by calculating a ratio of characteristic X-ray intensity between iodine (I) and nitrogen (N) (I/N) in a specified area of biological samples, iodine (I) in different samples can be relatively quantified and compared.\nBased on this principle, the sections obtained by the above experiment were analyzed by EPMA, and iodine in a specified area was relatively quantified and compared among the samples. […]"}, "C57BL/6J mice": {"system": "C57BL/6J mice", "experiment": "Contrast-induced renal injury model (left nephrectomy, ischemia-reperfusion, then iomeprol)", "conditions": "200 µL iomeprol + 100 µL of 1 mg/mL cyanocobalamin, vs iomeprol + normal saline", "quoted_text": "Left kidneys were extracted from the C57BL/6J mice, and 14 days later, right kidney pedicles were ligated for 30 minutes. Thereafter, reperfusion was carried out. After 24 hours from the start of reperfusion, the C57BL/6J mice were divided into the following groups and administered with the following agents from the tail vein. • a) Contrast medium + vitamin B12-treated group: 200 µL of iomeprol + 100 µL of 1 mg/mL of cyanocobalamin solution • b) Contrast medium + normal saline-treated group (control): 200 µL of iomeprol + 100 µL of normal saline\nFor each of the groups, 24 hours before anatomizing, urine samples were collected using a metabolic cage, the mice were anatomized after 48 hours from the medication, then urinary kidney injury molecule-1 (KIM-1) was measured. Urinary KIM-1 measurements were conducted by Oriental Yeast Co., Ltd.\nFurther, right kidneys were extracted and histologically evaluated by immunostaining with KIM-1. To be specific, 3 mm-thick sections containing a kidney pedicle portion were prepared from the right kidneys, fixed with 4% paraformaldehyde phosphate buffer, sliced at a thickness of 4 µm using a microtome (REM-710; Yamato Kohki Industrial Co., Ltd.), and the obtained thin slices were immunostained with the renal injury marker KIM-1. The immunostaining was performed using VECTASTAIN Elite ABC Kit (Vector Laboratories, Inc.). […]"}, "megalin [4]": {"target": "megalin (Mus musculus, UniProt A2ARV4)", "sequence (A2ARV4 26-4660)": "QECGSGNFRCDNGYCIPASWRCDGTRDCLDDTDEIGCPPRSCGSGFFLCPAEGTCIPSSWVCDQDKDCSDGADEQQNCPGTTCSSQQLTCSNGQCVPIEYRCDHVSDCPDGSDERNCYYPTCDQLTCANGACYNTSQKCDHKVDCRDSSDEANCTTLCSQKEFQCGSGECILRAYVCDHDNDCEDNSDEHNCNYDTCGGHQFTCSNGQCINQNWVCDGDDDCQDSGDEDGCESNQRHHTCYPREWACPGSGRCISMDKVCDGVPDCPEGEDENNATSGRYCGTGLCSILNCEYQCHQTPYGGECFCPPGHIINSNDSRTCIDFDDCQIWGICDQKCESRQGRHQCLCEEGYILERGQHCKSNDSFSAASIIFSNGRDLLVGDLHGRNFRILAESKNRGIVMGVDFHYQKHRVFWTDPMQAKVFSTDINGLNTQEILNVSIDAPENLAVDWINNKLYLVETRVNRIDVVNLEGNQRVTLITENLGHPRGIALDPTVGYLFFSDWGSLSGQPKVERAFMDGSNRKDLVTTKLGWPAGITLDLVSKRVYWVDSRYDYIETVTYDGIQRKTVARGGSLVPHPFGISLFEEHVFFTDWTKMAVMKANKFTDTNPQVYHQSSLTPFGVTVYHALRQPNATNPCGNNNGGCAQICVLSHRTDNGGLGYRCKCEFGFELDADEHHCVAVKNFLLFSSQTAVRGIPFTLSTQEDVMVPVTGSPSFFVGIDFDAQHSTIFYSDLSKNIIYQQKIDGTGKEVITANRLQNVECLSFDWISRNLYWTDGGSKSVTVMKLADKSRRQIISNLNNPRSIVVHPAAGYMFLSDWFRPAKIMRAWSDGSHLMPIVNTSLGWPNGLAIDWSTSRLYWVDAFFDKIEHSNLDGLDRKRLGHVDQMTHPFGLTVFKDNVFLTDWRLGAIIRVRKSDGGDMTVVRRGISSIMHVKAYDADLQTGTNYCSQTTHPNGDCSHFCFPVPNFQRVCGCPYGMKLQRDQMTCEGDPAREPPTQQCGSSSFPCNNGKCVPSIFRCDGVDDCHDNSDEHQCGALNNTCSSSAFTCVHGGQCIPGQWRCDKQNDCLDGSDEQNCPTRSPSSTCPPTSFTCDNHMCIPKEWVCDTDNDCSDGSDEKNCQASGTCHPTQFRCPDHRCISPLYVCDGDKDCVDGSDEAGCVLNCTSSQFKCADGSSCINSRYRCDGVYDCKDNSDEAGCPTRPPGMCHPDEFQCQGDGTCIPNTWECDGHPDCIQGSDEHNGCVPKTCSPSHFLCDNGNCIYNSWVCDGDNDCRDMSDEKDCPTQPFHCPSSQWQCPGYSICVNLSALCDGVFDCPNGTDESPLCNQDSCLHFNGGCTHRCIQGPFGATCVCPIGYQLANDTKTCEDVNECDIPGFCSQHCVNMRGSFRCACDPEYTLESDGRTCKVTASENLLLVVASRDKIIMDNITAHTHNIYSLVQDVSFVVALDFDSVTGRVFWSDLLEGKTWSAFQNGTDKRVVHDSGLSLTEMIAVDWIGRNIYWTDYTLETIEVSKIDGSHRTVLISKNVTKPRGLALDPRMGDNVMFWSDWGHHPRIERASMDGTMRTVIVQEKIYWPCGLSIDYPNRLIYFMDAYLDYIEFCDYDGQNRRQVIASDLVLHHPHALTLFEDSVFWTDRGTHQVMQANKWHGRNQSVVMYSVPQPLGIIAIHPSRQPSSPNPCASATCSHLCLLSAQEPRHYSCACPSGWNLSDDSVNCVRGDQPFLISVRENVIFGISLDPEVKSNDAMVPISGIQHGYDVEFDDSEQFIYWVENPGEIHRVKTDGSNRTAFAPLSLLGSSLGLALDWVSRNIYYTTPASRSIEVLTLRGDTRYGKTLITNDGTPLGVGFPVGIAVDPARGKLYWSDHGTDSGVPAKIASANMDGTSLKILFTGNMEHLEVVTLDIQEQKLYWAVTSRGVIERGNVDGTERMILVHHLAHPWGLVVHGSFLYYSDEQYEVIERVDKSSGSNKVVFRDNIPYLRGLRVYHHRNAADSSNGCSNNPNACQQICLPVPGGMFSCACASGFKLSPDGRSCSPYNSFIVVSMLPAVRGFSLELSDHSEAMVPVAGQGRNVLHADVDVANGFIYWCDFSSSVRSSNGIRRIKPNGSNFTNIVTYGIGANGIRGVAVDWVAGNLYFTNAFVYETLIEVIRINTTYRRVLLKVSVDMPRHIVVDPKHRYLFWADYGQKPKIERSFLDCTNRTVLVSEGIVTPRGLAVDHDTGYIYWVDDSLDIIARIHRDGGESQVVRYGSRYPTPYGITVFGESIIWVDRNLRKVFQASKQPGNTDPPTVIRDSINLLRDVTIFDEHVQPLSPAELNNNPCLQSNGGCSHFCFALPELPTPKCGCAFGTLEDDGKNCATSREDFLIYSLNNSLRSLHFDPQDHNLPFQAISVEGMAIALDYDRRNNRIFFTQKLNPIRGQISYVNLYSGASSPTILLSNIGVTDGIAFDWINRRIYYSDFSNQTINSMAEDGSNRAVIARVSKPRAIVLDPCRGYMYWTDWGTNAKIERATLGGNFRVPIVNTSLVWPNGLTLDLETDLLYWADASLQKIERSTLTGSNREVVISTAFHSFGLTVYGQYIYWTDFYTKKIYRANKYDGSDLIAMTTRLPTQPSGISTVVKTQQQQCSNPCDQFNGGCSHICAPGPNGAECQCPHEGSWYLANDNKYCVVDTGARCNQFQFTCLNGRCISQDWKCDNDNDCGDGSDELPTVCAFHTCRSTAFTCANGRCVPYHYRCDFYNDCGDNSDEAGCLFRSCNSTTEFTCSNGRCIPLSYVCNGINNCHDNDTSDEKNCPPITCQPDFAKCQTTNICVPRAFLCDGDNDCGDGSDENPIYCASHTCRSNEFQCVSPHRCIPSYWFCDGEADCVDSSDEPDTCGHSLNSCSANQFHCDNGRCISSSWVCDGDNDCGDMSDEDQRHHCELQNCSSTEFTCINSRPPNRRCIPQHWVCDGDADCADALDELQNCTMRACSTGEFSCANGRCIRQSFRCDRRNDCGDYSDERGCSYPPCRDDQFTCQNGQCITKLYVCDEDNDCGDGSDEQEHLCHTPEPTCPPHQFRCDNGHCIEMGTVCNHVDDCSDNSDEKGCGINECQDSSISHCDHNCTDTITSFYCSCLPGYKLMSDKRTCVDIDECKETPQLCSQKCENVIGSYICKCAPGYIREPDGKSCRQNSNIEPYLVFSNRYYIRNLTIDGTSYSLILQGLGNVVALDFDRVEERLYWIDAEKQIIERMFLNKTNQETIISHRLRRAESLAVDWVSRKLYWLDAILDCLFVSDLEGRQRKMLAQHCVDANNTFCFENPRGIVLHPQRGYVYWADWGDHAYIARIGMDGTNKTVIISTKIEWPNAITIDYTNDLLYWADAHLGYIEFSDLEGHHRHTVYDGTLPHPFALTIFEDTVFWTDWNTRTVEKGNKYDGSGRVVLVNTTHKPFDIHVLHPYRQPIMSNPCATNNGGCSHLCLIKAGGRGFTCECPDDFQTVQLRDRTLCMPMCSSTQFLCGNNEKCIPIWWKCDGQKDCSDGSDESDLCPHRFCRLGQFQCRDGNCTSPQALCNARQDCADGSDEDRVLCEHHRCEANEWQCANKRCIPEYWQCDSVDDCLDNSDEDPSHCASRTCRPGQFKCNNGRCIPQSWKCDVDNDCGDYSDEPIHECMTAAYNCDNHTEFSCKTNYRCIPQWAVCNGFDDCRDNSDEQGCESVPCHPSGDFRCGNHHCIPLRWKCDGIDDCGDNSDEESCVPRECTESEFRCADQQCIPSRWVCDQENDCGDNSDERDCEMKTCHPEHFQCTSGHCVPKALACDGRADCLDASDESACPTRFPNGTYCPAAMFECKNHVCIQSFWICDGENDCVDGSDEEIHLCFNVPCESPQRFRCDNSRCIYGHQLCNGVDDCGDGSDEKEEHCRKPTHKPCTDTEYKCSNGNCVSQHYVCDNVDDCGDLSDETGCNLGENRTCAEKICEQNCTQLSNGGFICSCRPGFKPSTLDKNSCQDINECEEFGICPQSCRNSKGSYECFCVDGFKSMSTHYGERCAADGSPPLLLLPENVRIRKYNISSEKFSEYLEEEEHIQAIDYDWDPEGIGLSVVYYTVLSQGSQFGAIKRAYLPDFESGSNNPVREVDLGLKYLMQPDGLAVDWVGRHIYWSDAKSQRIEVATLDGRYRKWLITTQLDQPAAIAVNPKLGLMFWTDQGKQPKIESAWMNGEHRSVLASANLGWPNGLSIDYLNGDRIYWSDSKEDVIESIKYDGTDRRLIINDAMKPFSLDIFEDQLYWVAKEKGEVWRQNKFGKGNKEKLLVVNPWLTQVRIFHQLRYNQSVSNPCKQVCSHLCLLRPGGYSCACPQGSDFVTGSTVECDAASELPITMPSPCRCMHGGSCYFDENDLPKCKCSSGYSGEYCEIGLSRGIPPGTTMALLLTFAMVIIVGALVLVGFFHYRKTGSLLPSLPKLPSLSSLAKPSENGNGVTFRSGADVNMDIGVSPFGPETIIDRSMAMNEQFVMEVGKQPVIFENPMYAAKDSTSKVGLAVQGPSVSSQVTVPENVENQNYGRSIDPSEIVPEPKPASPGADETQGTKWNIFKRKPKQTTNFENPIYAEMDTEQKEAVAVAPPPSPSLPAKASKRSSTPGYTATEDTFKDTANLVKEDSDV", "conditions": "described in PTL 1; cited from earlier work"}, "megalin [5]": {"target": "T2, megalin (Rattus norvegicus, UniProt P98158)", "T2 construct": "megalin purified from Sprague-Dawley (SD) rat kidneys; from tissue; host or cells: Sprague-Dawley rat kidneys (megalin purified by the method of Orlando et al.); TCN2 purchased from LifeSpan BioSciences", "experiment": "Quartz crystal microbalance (QCM) binding of transcobalamin 2 to immobilized megalin", "set-up": "species or system Sprague-Dawley (SD) rat", "conditions": "1.5 µg recombinant rat transcobalamin 2 injected on megalin-immobilized quartz crystals; BSA control decreased only 20 to 30 Hz; FIG. 4", "experimental": "According to the method of Orlando, et al., megalin purified from Sprague-Dawley (SD) rat kidneys was immobilized on quartz crystals. To be specific, with the use of an immobilization kit for AFFINIX® (Initium Inc.) according to the recommended protocol for the kit, a megalin solution was prepared in Buffer A as provided with the kit to a concentration of 62.5 µg/mL, and placed and immobilized on the quartz crystals mounted in a holder.\nAfter the megalin-immobilized quartz crystals were mounted in the measurement instrument AFFINIX® Q8 (Initium Inc.) and the frequency was confirmed to be stable, recombinant rat transcobalamin 2 proteins (TCN2 LifeSpan Bio Sciences, Inc.) (1.5 µg) were injected (in total injection volume) to measure frequency over time. More specifically, after the megalin-immobilized quartz crystals were immersed in 200 µL of buffer and the frequency was confirmed to be stable, transcobalamin 2 was injected and frequency was measured. The same measurement was done on quartz crystals, as a control, on which the same amount of bovine serum albumin (BSA) was immobilized instead of megalin, and the specific binding ability of transcobalamin 2 to megalin was analyzed."}}}
{"molecule": "CN(C(=O)CO)c1c(I)c(C(=O)NCC(O)CO)c(I)c(C(=O)NCC(O)CO)c1I", "note": "(stereo not drawn) [iomeprol]", "values": [{"measurement": "intensity of TCN2 band from heat-eluted samples", "setting": "transcobalamin 2 (TCN2) [1]", "result": "intensity of the band corresponding to TCN2 from heat-eluted samples was increased"}, {"measurement": "TCN2 bands by competition with test substance", "setting": "transcobalamin 2 (TCN2) [2]", "result": "concentration-dependent decrease in TCN2 bands"}]}
{"molecule": "C/C1=C2/[N-][C@H]([C@H](CC(N)=O)[C@@]2(C)CCC(=O)NC[C@H](C)OP(=O)([O-])O[C@H]2[C@@H](O)[C@@H](n3cnc4cc(C)c(C)cc43)O[C@@H]2CO)[C@]2(C)N=C(/C(C)=C3N=C(/C=C4N=C1[C@@H](CCC(N)=O)C\\4(C)C)[C@@H](CCC(N)=O)[C@]\\3(C)CC(N)=O)[C@@H](CCC(N)=O)[C@]2(C)CC(N)=O.[CH3-].[Co+3]", "note": "[methylcobalamin]", "values": [{"measurement": "TCN2 bands by competition with test substance", "setting": "transcobalamin 2 (TCN2) [2]", "result": "concentration-dependent decrease in TCN2 bands"}]}
{"molecule": "cyanocobalamin", "values": [{"measurement": "I/N X-ray ratio (iodine/nitrogen) in kidney cortex areas", "setting": "[3]", "result": "significantly (t-test) lower"}, {"measurement": "expression of KIM-1 in outer cortex (immunostaining)", "setting": "C57BL/6J mice; tail vein, 48 hours after medication, FIG. 2", "result": "expression of KIM-1 was decreased"}, {"measurement": "PAS staining, vacuoles degeneration (injury finding) in kidney cortex", "setting": "C57BL/6J mice; FIG. 3", "result": "did not have such an injury finding"}, {"measurement": "TCN2 bands by competition with test substance", "setting": "transcobalamin 2 (TCN2) [2]", "result": "concentration-dependent decrease in TCN2 bands"}]}
{"molecule": "CC1(C)C[C@@H]1C(=O)N/C(=C\\CCCCSC[C@H](N)C(=O)O)C(=O)O", "note": "[cilastatin, (Z)-7-[[(R)-2-Amino-2-carboxyethyl]thio]-2-[[[(S)-2,2-dimethylcyclopropyl]carbonyl]amino]-2-heptenoic acid]", "values": [{"measurement": "megalin-dependent internalization of iodinated contrast media into renal proximal tubular epithelial cells", "setting": "megalin [4]", "result": "inhibits"}, {"measurement": "renal injuries", "setting": "megalin [4]", "result": "inhibits renal injuries"}, {"measurement": "TCN2 bands by competition with test substance", "setting": "transcobalamin 2 (TCN2) [2]", "result": "concentration-dependent decrease in TCN2 bands"}]}
{"molecule": "C/C1=C2/[N-][C@H]([C@H](CC(N)=O)[C@@]2(C)CCC(=O)NC[C@@H](C)OP(=O)([O-])O[C@H]2[C@@H](O)[C@@H](n3cnc4cc(C)c(C)cc43)O[C@@H]2CO)[C@]2(C)N=C(/C(C)=C3N=C(/C=C4N=C1[C@@H](CCC(N)=O)C\\4(C)C)[C@@H](CCC(N)=O)[C@]\\3(C)CC(N)=O)[C@@H](CCC(N)=O)[C@]2(C)CC(N)=O.[Co+3].[OH-]", "note": "[hydroxocobalamin]", "values": [{"measurement": "TCN2 bands by competition with test substance", "setting": "transcobalamin 2 (TCN2) [2]", "result": "concentration-dependent decrease in TCN2 bands"}]}
{"molecule": "B1", "values": [{"measurement": "decrease of QCM frequency", "setting": "megalin [5]", "result": "about 200 Hz"}]}
